{"source": "patent US20100323990A1", "about": "“SHIP 1 MODULATOR PRODRUGS” (THE UNIVERSITY OF BRITISH COLUMBIA, priority 2006, published 2010)", "system": "SHIP−/− bone marrow derived macrophages", "assay": "LPS-stimulated TNFα production in SHIP−/− bone marrow derived macrophages", "type": "cell-based, mice", "settings": "SHIP−/− cells, 15 μM, 10 ng/mL LPS 2 h", "method": "Bone marrow cells were aspirated from 4 to 8 week old C57B16×129Sv mixed background mice and SHIP^+/+ and SHIP^−/− mast cells prepared as described previously. Bone marrow derived macrophages from SHIP^+/+ and SHIP^−/− mice were obtained and maintained in IMDM supplemented with 10% FCS, 150 μM MTG, 2% C127 cell conditioned medium as a source of macrophage colony stimulating factor (M-CSF) (macrophage medium)\nLPS stimulation of macrophages. For the analysis of LPS-stimulated TNFα production, 2×10^5 cells were plated the night before in 24 well plates in macrophage medium. The next day, the medium was changed and AQX-016A or carrier was added to cells at the indicated concentrations for 30 min prior to the addition of 10 ng/mL LPS. Supernatants were collected for TNFα determination by ELISA (BD Biosciences, Mississauga, ON, Canada). For analysis of intracellular signaling, 2×10^6 cells were plated the night before in 6 cm tissue culture plates. […] Calcium influx was monitored by spectrofluorometry. […] Total cell lysates were then prepared and analyzed for phospho-PKB, phospho-p38^MAPK, phospho-MAPK, Grb-2 (Cell Signalling, Mississauga, Ont) and SHIP^6 by immunoblot analysis.\nThe target specificity and biological efficacy of AQX-016A were assessed by comparing AQX-016A's effects on PI3K-regulated processes in primary SHIP^+/+ vs SHIP^−/− macrophages and mast cells. […]"}
{"smiles": "Cc1cc(O)c(O)c2c1[C@]1(C)CCC3C(C)(C)CCC[C@]3(C)[C@H]1C2", "note": "(stereo partly shown) [AQX-016A]", "values": [{"measurement": "suppression of TNFα production", "value": 15, "unit": "%"}]}
